Experimental data published in PubChem BioAssay AID328 (DTP/NCI, 2004).
Where “and” joins values, the source holds several entries; their conditions need not be identical. Identical values can stand only once. Inconclusive results and toxic doses are left out.

Tested on: BDF1 mice, P388 leukemia ip, median survival T/C
Experiment: NCI In Vivo Anticancer Drug Screen. Data for tumor model P388 Leukemia (intraperitoneal) in B6D2F1 (BDF1) mice
Conditions: endpoint: median survival time, higher = longer survival
In short: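 Antitumour effect was judged in vivo: survival in drug-treated mice, normalised to that of vehicle-dosed controls, gives the reported T/C.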

[1] = dose: 50.0 mg/kg/injection, schedule: Q01DX001 (ip), vehicle: saline sonified
[2] = dose: 100.0 mg/kg/injection, schedule: Q01DX001 (ip), vehicle: saline sonified
[3] = dose: 200.0 mg/kg/injection, schedule: Q01DX001 (ip), vehicle: saline sonified
[4] = dose: 6.25 mg/kg/injection, schedule: Q01DX009 (ip), vehicle: saline
[5] = dose: 6.25 mg/kg/injection, schedule: Q04DX003 (ip), vehicle: saline

Question: For `CCCCCCCCCC(=O)NN`, which T/C [1] is on record?
Answer: 95 % of control

Question: And the T/C [2]?
Answer: 104 % of control

Question: And the T/C [3]?
Answer: 104 % of control

Question: What does the source list for `Cc1c2cc3c(cc2cc2c4cc5c(cc4cc[n+]12)OCO5)OCO3` (tested in a mixture with another compound)?
Answer: T/C (dose: 3.0 mg/kg/injection, schedule: Q04DX003 (ip), vehicle: saline): 159 % of control; T/C (dose: 3.13 mg/kg/injection, schedule: Q01DX009 (ip), vehicle: saline): 98 % of control; T/C (dose: 5.56 mg/kg/injection, schedule: Q04DX003 (ip), vehicle: saline): 150 % of control and 177 % of control; T/C [4]: 89 % of control; T/C [5]: 170 % of control; T/C (dose: 8.33 mg/kg/injection, schedule: Q04DX003 (ip), vehicle: saline): 172 % of control and 200 % of control; T/C (dose: 12.5 mg/kg/injection, schedule: Q04DX003 (ip), vehicle: saline): 150 % of control and 177 % of control and 190 % of control; T/C (dose: 18.7 mg/kg/injection, schedule: Q04DX003 (ip), vehicle: saline): 113 % of control; T/C (dose: 25.0 mg/kg/injection, schedule: Q04DX003 (ip), vehicle: saline): 95 % of control

Question: Which results are given for `O=[n+]1c2ccccc2n([O-])c2ccccc21.[Cl][Cu][Cl]`?
Answer: T/C (dose: 6.25 mg/kg/injection, schedule: Q04DX003 (ip), vehicle: saline with Tween-80): 101 % of control; T/C (dose: 12.5 mg/kg/injection, schedule: Q04DX003 (ip), vehicle: saline with Tween-80): 116 % of control

Question: How did the T/C (dose: 150.0 mg/kg/injection, schedule: Q01DX009 (ip), vehicle: saline) turn out when `CN1CCCCCC1` was run?
Answer: 95 % of control

Question: And the T/C (dose: 225.0 mg/kg/injection, schedule: Q01DX009 (ip), vehicle: saline)?
Answer: 104 % of control

Question: What about the T/C (dose: 335.0 mg/kg/injection, schedule: Q01DX009 (ip), vehicle: saline) of the same molecule?
Answer: 86 % of control

Question: What does the source list for `COC(=O)c1nc2c(C)nc(N(C)C)nc2[nH]c1=O`?
Answer: T/C (dose: 100.0 mg/kg/injection, schedule: Q04DX003 (ip), vehicle: saline with Tween-80): 101 % of control; T/C (dose: 200.0 mg/kg/injection, schedule: Q04DX003 (ip), vehicle: saline with Tween-80): 107 % of control; T/C (dose: 400.0 mg/kg/injection, schedule: Q04DX003 (ip), vehicle: saline with Tween-80): 100 % of control

Question: For `CCCCCCCCCCCCCCCCCC[N+](C)(C)C` (tested in a mixture with another compound), which T/C (dose: 1.0 mg/kg/injection, schedule: Q01DX009 (ip), vehicle: saline) is on record?
Answer: 109 % of control

Question: What about the T/C (dose: 2.0 mg/kg/injection, schedule: Q01DX009 (ip), vehicle: saline) of the same molecule?
Answer: 113 % of control

Question: And the T/C (dose: 4.0 mg/kg/injection, schedule: Q01DX009 (ip), vehicle: saline)?
Answer: 118 % of control

Question: `N=Cc1c(O)[nH]c(=O)[nH]c1=O` was tested. Which T/C (dose: 100.0 mg/kg/injection, schedule: Q01DX009 (ip), vehicle: saline) did it give?
Answer: 109 % of control

Question: What about the T/C (dose: 100.0 mg/kg/injection, schedule: Q04DX003 (ip), vehicle: saline) of the same molecule?
Answer: 92 % of control

Question: And the T/C (dose: 200.0 mg/kg/injection, schedule: Q01DX009 (ip), vehicle: saline)?
Answer: 109 % of control

Question: What about the T/C (dose: 200.0 mg/kg/injection, schedule: Q04DX003 (ip), vehicle: saline) of the same molecule?
Answer: 107 % of control

Question: What about the T/C (dose: 400.0 mg/kg/injection, schedule: Q01DX009 (ip), vehicle: saline) of the same molecule?
Answer: 118 % of control

Question: And the T/C (dose: 400.0 mg/kg/injection, schedule: Q04DX003 (ip), vehicle: saline)?
Answer: 92 % of control

Question: How did the T/C [1] turn out when `Cc1ccc2oc3ccccc3c(=O)c2c1` was run?
Answer: 95 % of control

Question: And the T/C [2]?
Answer: 95 % of control

Question: What about the T/C [3] of the same molecule?
Answer: 95 % of control

Question: `O=CN(O)CC(=O)O.[Ni]` was tested. Which T/C (dose: 1.56 mg/kg/injection, schedule: Q04DX003 (ip), vehicle: saline) did it give?
Answer: 90 % of control

Question: What about the T/C (dose: 2.3 mg/kg/injection, schedule: Q01DX001 (ip), vehicle: saline) of the same molecule?
Answer: 105 % of control

Question: What about the T/C (dose: 3.12 mg/kg/injection, schedule: Q01DX009 (ip), vehicle: saline) of the same molecule?
Answer: 120 % of control

Question: What about the T/C (dose: 3.12 mg/kg/injection, schedule: Q04DX003 (ip), vehicle: saline) of the same molecule?
Answer: 109 % of control

Question: What about the T/C [4] of the same molecule?
Answer: 115 % of control

Question: And the T/C [5]?
Answer: 109 % of control

Question: What about the T/C (dose: 9.2 mg/kg/injection, schedule: Q01DX001 (ip), vehicle: saline) of the same molecule?
Answer: 95 % of control

Question: And the T/C (dose: 9.2 mg/kg/injection, schedule: Q04DX003 (ip), vehicle: saline)?
Answer: 100 % of control

Question: And the T/C (dose: 13.0 mg/kg/injection, schedule: Q01DX001 (ip), vehicle: saline)?
Answer: 113 % of control

Question: What about the T/C (dose: 13.0 mg/kg/injection, schedule: Q04DX003 (ip), vehicle: saline) of the same molecule?
Answer: 109 % of control

Question: And the T/C (dose: 14.0 mg/kg/injection, schedule: Q04DX003 (ip), vehicle: saline)?
Answer: 109 % of control

Question: And the T/C (dose: 20.0 mg/kg/injection, schedule: Q01DX001 (ip), vehicle: saline)?
Answer: 113 % of control

Question: What about the T/C (dose: 21.0 mg/kg/injection, schedule: Q04DX003 (ip), vehicle: saline) of the same molecule?
Answer: 118 % of control

Question: And the T/C (dose: 30.0 mg/kg/injection, schedule: Q01DX001 (ip), vehicle: saline)?
Answer: 113 % of control

Question: What about the T/C (dose: 30.0 mg/kg/injection, schedule: Q04DX003 (ip), vehicle: saline) of the same molecule?
Answer: 113 % of control
